Assay: Thermogravimetric analysis under air
Format: physicochemical
Experimental: A thermogravimetric analysis under air of the compound 3a was also carried out after storage exposed to the air for 3 weeks.
By way of comparison, a thermogravimetric analysis of an imidazolium iodide not coming within the invention, namely 1,3-dimethylimidazolium iodide (DMII), was also carried out.
The results obtained are given in the appended FIGS. 1 and 2. FIG. 1 gives the results of the calorimetric analysis of the compound 3a. In this figure, the heat flux (in W/g) is a function of the temperature (in ° C.). FIG. 2 gives the results of the thermogravimetric analysis for the compound 3a (continuous line) in comparison with the DMII (noncontinuous line).
In comparison, DMII allows a loss in weight of the order of 30% originating from the water captured as a result of its hygroscopicity.

Row | Structure (SMILES) | hygroscopicity (after storage exposed to the air for 3 weeks) | temperature up to which the compound is stable (thermogravimetric analysis under air) | loss in weight originating from captured water (hygroscopicity) (thermogravimetric analysis)
1 | COC(=O)CCc1cn(C)c[n+]1C.[I-] [Compound 3a, 4-(3-methoxy-3-oxopropyl)-1,3-dimethyl-1H-imidazol-3-ium Iodide] | does not exhibit any hygroscopicity nature | 300 °C | 
2 | Cn1cc[n+](C)c1.[I-] [DMII, 1,3-Dimethylimidazolium iodide, reference compound] |  |  | ~30%
